Experimental data published in patent US9656981B2, “Peripherally-acting cannabinoid receptor agonists for chronic pain” (The Regents of the University of California, priority 2012, dated 2017).
Where two headings read alike, the source gives them in different places.

Columns and labels:
[1] = target: CB1R (Homo sapiens, UniProt P21554); assay: CB1R radioligand displacement binding assay (CP55940 radioligand)
Description: Heterologous competition binding assays were performed to calculate receptor affinities. Unlabeled SR141716 or SR144528 were used as appropriate controls for non-specific binding (NSB) in the assay. Calculation of the equilibrium dissociation constant (Ki) was performed using the Cheng-Prusoff equation.

[2] = target: CB2R (Homo sapiens, UniProt P34972); assay: CB2R radioligand displacement binding assay (CP55940 radioligand)
Sequence of CB2R (P34972 whole entry): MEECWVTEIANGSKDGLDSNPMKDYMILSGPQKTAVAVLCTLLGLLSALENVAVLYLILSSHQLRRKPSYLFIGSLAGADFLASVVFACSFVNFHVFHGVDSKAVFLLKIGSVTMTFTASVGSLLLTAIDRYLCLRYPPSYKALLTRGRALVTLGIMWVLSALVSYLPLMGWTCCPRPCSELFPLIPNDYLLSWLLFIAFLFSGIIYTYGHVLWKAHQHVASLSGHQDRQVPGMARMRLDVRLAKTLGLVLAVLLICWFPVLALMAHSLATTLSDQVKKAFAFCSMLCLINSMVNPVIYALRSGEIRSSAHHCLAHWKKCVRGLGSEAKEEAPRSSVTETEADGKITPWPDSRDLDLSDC
Description: Detailed radioligand displacement assays (using the well-characterized CBR agonist […] as the radioligand) were conducted to determine the affinity (Ki) of the test compounds for CB1R and CB2R as has been previously described by our group^112,113. Heterologous competition binding assays were performed to calculate receptor affinities. Unlabeled SR141716 or SR144528 were used as appropriate controls for non-specific binding (NSB) in the assay. Calculation of the equilibrium dissociation constant (Ki) was performed using the Cheng-Prusoff equation.

[3] = Table 1, CP55940 radioligand, read-out: CB1_KI_CP

Sequence of CB1R (P21554 whole entry): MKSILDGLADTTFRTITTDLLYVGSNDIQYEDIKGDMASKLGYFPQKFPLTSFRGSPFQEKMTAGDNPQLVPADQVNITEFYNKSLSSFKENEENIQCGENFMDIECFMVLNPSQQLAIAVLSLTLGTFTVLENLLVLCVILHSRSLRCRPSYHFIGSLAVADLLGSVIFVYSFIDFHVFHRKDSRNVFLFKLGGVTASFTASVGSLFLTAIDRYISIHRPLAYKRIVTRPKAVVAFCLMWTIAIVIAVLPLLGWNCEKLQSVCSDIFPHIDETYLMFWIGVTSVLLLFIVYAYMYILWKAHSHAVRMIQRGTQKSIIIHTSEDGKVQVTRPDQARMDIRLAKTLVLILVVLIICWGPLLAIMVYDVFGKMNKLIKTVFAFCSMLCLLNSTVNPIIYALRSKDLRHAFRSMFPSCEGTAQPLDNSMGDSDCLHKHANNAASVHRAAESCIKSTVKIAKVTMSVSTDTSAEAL

Row | SMILES | Ki [1, 3] [nM] | Ki [2] [nM] | also measured
1 | O=C(c1cccc2ccccc12)c1cn(CCCCCF)c2cccc(F)c12 [Compound 66, 4-fluoro-1-(5-fluoropentyl)-3-(naphthalene-1-carbonyl)-1H-indole] | 4.38 | 2.94 | –
2 | C1=C(CCN2CCOCC2)c2ccccc2/C1=C/c1cccc2cc[nH]c12 [Compound 17, 7-{[(1E)-3-[2-(morpholin-4-yl)ethyl]-1H-inden-1-ylidene]methyl}-1H-indole] | 107 | 8.7 | –
3 | C1=C(CCN2CCOCC2)c2ccccc2/C1=C/c1ccccc1-c1ccccc1 [Compound 16, 4-{2-[(1E)-1-[(2-phenylphenyl)methylidene]-1H-inden-3-yl]ethyl} morpholine] | 82.9 | 15.3 | –
4 | C1=C(CCN2CCOCC2)c2ccccc2/C1=C/c1ccco1 [Compound 31, 4-{2-[(1E)-1-(furan-2-ylmethylidene)-1H-inden-3-yl]ethyl} morpholine] | – | 1260 | –
5 | CCCCCCC1=C/C(=C\Cc2ccccc2)c2ccccc21 [Compound 38, (1E)-3-hexyl-1-(2-phenyl-ethylidene)-1H-indene] | – | 13700 | Ki [1]: 4410 nM
6 | Cc1ccc(C(=O)c2cn(CC[N+]3(C)CCOCC3)c3ccccc23)c2ccccc12 [Compound 43, 4-methyl-4-{2-[3-(4-methyl-naphthalene-1-carbonyl)-1H-indol-1-yl]ethyl}morpholin-4-ium iodide] | 4170 | – | –
7 | C1=C(CCN2CCOCC2)c2ccccc2/C1=C/c1ccnc2ccccc12 [Compound 14, 4-{[(1E)-3-[2-(morpholin-4-yl)ethyl]-1H-inden-1-ylidene]methyl} quinoline] | 23.3 | 12.1 | Ki [1]: 23 nM
8 | CC1=C(CC[N+]2(C)CCOCC2)c2ccccc2/C1=C/c1cccc2ccccc12 [Compound 36, 4-methyl-4-{2-[(1E)-2-methyl-1-(naphthalen-1-ylmethylidene)-1H-inden-3-yl]ethyl} morpholin-4-ium iodide] | 1610 | – | –
9 | CCCCCn1cc(C(=O)c2ccc(C(=O)OCC)c3ccccc23)c2ccccc21 [Compound 58, ethyl 4-(1-pentyl-1H-indole-3-carbonyl)naphth-alene-1-carboxylate] | 115 | 53.9 | –
10 | CCOC(=O)CCCn1cc(C(=O)c2cccc3ccccc23)c2ccccc21 [Compound 50, ethyl 4-[3-(naphthalene-1-carbonyl)-1H-indol-1-yl]butanoate] | 747 | – | –
11 | COc1ccc(C(=O)c2cn(CC[N+]3(C)CCOCC3)c3ccccc23)c2ccccc12 [Compound 41, 4-{2-[3-(4-methoxynaphth-alene-1-carbonyl)-1H-indol-1-yl]ethyl}-4-methylmorpholin-4-ium iodide] | 4080 | – | –
12 | CCCCCCC1=C/C(=C\c2cccc3ccccc23)c2ccccc21 [Compound 21, 1-{[(1E)-3-hexyl-1H-inden-1-ylidene]methyl} naphthalene] | – | 1450 | –
13 | CCCCCC1=C/C(=C\c2cccc3ccccc23)c2ccccc21 [Compound 19, 1-{[(1E)-3-pentyl-1H-inden-1-ylidene]methyl} naphthalene, reference compound] | 17.2 | 163 | –
14 | C1=C(CCN2CCOCC2)c2ccccc2/C1=C/c1ccc2c3c(cccc13)CC2 [Compound 12, 4-{2-[(1E)-1-(1,2-dihydroacenaphth-ylen-5-ylmethylidene)-1H-inden-3-yl]ethyl} morpholine] | – | – | Ki ([1]; read-out: CB1R binding affinity (Ki)): 15.9 nM; Ki ([2]; Table 1, CP55940 radioligand, read-out: CB2_KI_CP): 4.22 nM
15 | C1=C(CCN2CCOCC2)c2ccccc2/C1=C/c1cccc(-c2ccccc2)c1 [Compound 37, 4-{2-[(1E)-1-[(3-phenylphenyl)methylidene]-1H-inden-3-yl]ethyl} morpholine] | 2600 | 132 | –
16 | CCCCCn1cc(C(=O)c2ccc(C(=O)NC)c3ccccc23)c2ccccc21 [Compound 60, N-methyl-4-(1-pentyl-1H-indole-3-carbonyl) naphthalene-1-carboxamide] | 127 | 303 | –
17 | C1=C(CCN2CCOCC2)c2ccccc2/C1=C/c1ccccc1 [Compound 29, 4-{2-[(1E)-1-(phenyl-methylidene)-1H-inden-3-yl]ethyl} morpholine] | 1300 | 295 | –
18 | COc1ccc(C(=O)c2cn(CCN3CCOCC3)c3ccccc23)c2ccccc12 [Compound 42, 3-(4-methoxynaphtha-lene-1-carbonyl)-1-[2-(morpholin-4-yl)ethyl]-1H-indole, reference compound] | 88.1 | – | –
19 | Cc1ccccc1/C=C1\C=C(CCN2CCOCC2)c2ccccc21 [Compound 24, 4-{2-[(1E)-1-[(2-methylphenyl)methylidene]-1H-inden-3-yl]ethyl} morpholine] | 623 | 95.4 | –
20 | Clc1ccccc1/C=C1\C=C(CCN2CCOCC2)c2ccccc21 [Compound 26, 4-{2-[(1E)-1-[(2-chlorophenyl)methylidene]-1H-inden-3-yl]ethyl} morpholine] | 862 | – | –
21 | Cc1ccc(C(=O)c2cn(CCN3CCOCC3)c3ccccc23)c2ccccc12 [Compound 44, 3-(4-methyl-naphthalene-1-carbonyl)-1-[2-(morpholin-4-yl)ethyl]-1H-indole, reference compound] | 20.2 | – | –
22 | O=C(c1cccc2ccccc12)c1cn(CCN2CCOCC2)c2cccc(F)c12 [Compound 68, 4-fluoro-1-[2-(morpholin-4-yl)ethyl]-3-(naphthalene-1-carbonyl)-1H-indole] | 237 | 95.2 | –
23 | COc1ccccc1/C=C1\C=C(CCN2CCOCC2)c2ccccc21 [Compound 18, 4-{2-[(1E)-1-[(2-methoxyphenyl)meth-ylidene]-1H-inden-3-yl]ethyl} morpholine] | 149 | 29.8 | –
24 | C1=C(CCN2CCOCC2)c2ccccc2/C1=C/c1ccc2ccccc2c1 [Compound 20, 4-{2-[(1E)-1-(naphthalen-2-ylmethylidene)-1H-inden-3-yl]ethyl} morpholine] | 134 | 24.4 | –
25 | Fc1ccccc1/C=C1\C=C(CCN2CCOCC2)c2ccccc21 [Compound 28, 4-{2-[(1E)-1-[(2-fluorophenyl)methylidene]-1H-inden-3-yl]ethyl} morpholine] | 1000 | 429 | –
26 | CC1=C(CCN2CCOCC2)c2ccccc2/C1=C/c1cccc2ccccc12 [Compound 15, 4-{2-[(1E)-2-methyl-1-(naphthalen-1-ylmethylidene)-1H-inden-3-yl]ethyl} morpholine] | – | 2.84 | –
27 | C1=C(CCN2CCOCC2)c2ccccc2/C1=C/c1cccc2cnccc12 [Compound 22, 5-{[(1E)-3-[2-(morpholin-4-yl)ethyl]-1H-inden-1-ylidene]methyl} isoquinoline] | 454 | 51.4 | –
28 | O=C(c1cccc2ccccc12)c1cn(CCN2CCOCC2)c2ccccc12 [Compound 39, 1-[2-(morpholin-4-yl)ethyl]-3-(naphthalene-1-carbonyl)-1H-indole, reference compound] | 81.6 | – | –
29 | C[N+]1(CCC2=C/C(=C\c3cccc4ccccc34)c3ccccc32)CCOCC1 [Compound 35, 4-methyl-4-{2-[(1E)-1-(naphthalen-1-ylmethylidene)-1H-inden-3-yl]ethyl} morpholin-4-ium iodide] | 982 | – | –
30 | CCOC(=O)CCCCn1cc(C(=O)c2cccc3ccccc23)c2ccccc21 [Compound 53, ethyl 5-[3-(naphthalene-1-carbonyl)-1H-indol-1-yl]pentanoate] | 1470 | – | –
